From patent publication US9657351B2, “MRNA-based gene expression for personalizing patient cancer therapy with an MDM2 antagonist” (Hoffmann-La Roche Inc., priority 2013, dated 2017)

Columns and labels:
Assay in all cases: COMPOUND A In Vitro Assay
Assay type in all cases: cell-based
SK-LU-1 = details: Homo sapiens, Lung, TP53 Mutant
Source text: (§1) To generate an MDM2 antagonist therapy predictive signature, the response of MDM2 antagonist therapy in vitro with gene expression profiling (FIG. 1) is combined. A bank of 287 human cancer cell lines, collectively termed the Cell Lines for Oncology/Chugai ACcumulative Tumour EncycLopedia (CELLO/CACTEL), representing a broad array of diverse human cancer tumor types are subject to evaluation using several high-throughput genomic technology platforms. The mutational status of nucleic acids from each cell line is determined by exome sequencing. Messenger RNA (mRNA) expression levels at baseline, prior to MDM2 antagonist therapy, are obtained via RNA sequencing. MDM2 antagonist therapy COMPOUND A, sometimes referred to herein as RG7112, responses are obtained by assays known to those skilled in the art such as RNA sequencing and microarray measurement using Gene Chip Human Genome U133 Plus 2.0 Array. The MDM2 therapy responses are obtained by high throughout screening assays. Depending on their responses to COMPOUND A these cell lines are classified as either sensitive, defined as IC50<=1, or resistant, defined as IC50>=10.
(§2) 281 cells are treated with MDM2 antagonists and the IC50 (therapy response) is generated. The cell lines span a broad range of tumor cell types of derivation.

SK-MEL-1 = details: Homo sapiens
Source text: as §1, §2

647-V = details: Homo sapiens, Urinary tract, urothelium, TP53 Mutant
Source text: as §1, §2

NCI-H187 = details: Homo sapiens, Lung, TP53 Mutant
Source text: as §1, §2

SJCRH30 = details: Homo sapiens, Muscle, TP53 Mutant
Source text: as §1, §2

T24 = details: Homo sapiens, T-24, Urinary, bladder, TP53 Mutant
Source text: as §1, §2

A-431 = details: Homo sapiens, Skin, epidermis, TP53 Mutant
Source text: as §1, §2

LS1034 = details: Homo sapiens, LS-1034, Intestine, large, caecum, TP53 Mutant
Source text: as §1, §2

AN3 CA = details: Homo sapiens, Uterus, endometrium, TP53 Mutant
Source text: as §1, §2

SK-MEL-30 = details: Homo sapiens, Skin, TP53 Mutant
Source text: as §1, §2

SK-N-AS = details: Homo sapiens, Brain, TP53 Mutant
Source text: as §1, §2

5637 = details: Homo sapiens, Urinary, bladder, TP53 Mutant
Source text: as §1, §2

PANC-1 = details: Homo sapiens, Pancreas, TP53 Mutant
Source text: as §1, §2

Y79 = details: Homo sapiens
Source text: as §1, §2

Hs 38•T = details: Homo sapiens
Source text: as §1, §2

T-47D = details: Homo sapiens, T47D, Breast, mammary gland, TP53 Mutant
Source text: as §1, §2

NCI-H1437 = details: Homo sapiens, Lung, TP53 Mutant
Source text: as §1, §2

MG-63 = details: Homo sapiens, Bone, TP53 Mutant
Source text: as §1, §2

EGI-1 = details: Homo sapiens, Bile duct, TP53 Mutant
Source text: as §1, §2

NCI-H2171 = details: Homo sapiens, Lung, TP53 Mutant
Source text: as §1, §2

KYSE-150 = details: Homo sapiens, Esophagus, TP53 Mutant
Source text: as §1, §2

NCI-H1299 = details: Homo sapiens, Lung, TP53 Mutant
Source text: as §1, §2

HeLa S3 = details: Homo sapiens, Cervix, TP53 Mutant
Source text: as §1, §2

NCI-H1944 = details: Homo sapiens, Lung, TP53 Wild type
Source text: as §1, §2

NCI-H2228 = details: Homo sapiens, Lung, TP53 Mutant
Source text: as §1, §2

SK-MES-1 = details: Homo sapiens, Lung, TP53 Mutant
Source text: as §1, §2

MDA-MB-157 = details: Homo sapiens, Breast, mammary gland, TP53 Mutant
Source text: as §1, §2

SK-ES-1 = details: Homo sapiens, SK-ES1, Bone, TP53 Mutant
Source text: as §1, §2

SW1417 = details: Homo sapiens, Intestine, large, colon, TP53 Mutant
Source text: as §1, §2

NCI-H748 = details: Homo sapiens, Lung, TP53 Mutant
Source text: as §1, §2

NCI-H441 = details: Homo sapiens, Lung, TP53 Mutant
Source text: as §1, §2

KMS-11 = details: Homo sapiens, Lymphocyte, TP53 Wild type
Source text: as §1, §2

SKM-1 = details: Homo sapiens, Lymphocyte, peripheral blood, TP53 Mutant
Source text: as §1, §2

NCI-H2347 = details: Homo sapiens, Lung, TP53 Wild type
Source text: as §1, §2

HepG2 = details: Homo sapiens
Source text: as §1, §2

COLO-704 = details: Homo sapiens, Ovary, TP53 Wild type
Source text: as §1, §2

Work on `CCOc1cc(C(C)(C)C)ccc1C1=N[C@@](C)(c2ccc(Cl)cc2)[C@@](C)(c2ccc(Cl)cc2)N1C(=O)N1CCN(CCCS(C)(=O)=O)CC1` [COMPOUND A] yielded an IC50 (SK-LU-1) of 11 µM, an IC50 (SK-MEL-1; SK-MEL-1, SK-MEL-1, Skin, TP53 Wild type) of 0.75 µM and an IC50 (SK-MEL-1; SK-MEL-1, SK-MEL-1 cells) of 0.8 µM. The IC50 (647-V) was 17 µM, the IC50 (NCI-H187) was 15 µM and the IC50 (SJCRH30) was 16 µM. It also gave an IC50 (T24) of 21 µM, an IC50 (A-431) of 9.5 µM and an IC50 (LS1034) of 5.7 µM. For the same molecule, the IC50 (AN3 CA) was 18 µM, the IC50 (SK-MEL-30) was 19 µM and the IC50 (SK-N-AS) was 13 µM. For the same molecule, the IC50 5637 was 8.5 µM, the IC50 (PANC-1) was 22 µM and the IC50 (Y79; Y79, Y79, Eye, retina, TP53 Wild type) was 0.61 µM. The IC50 (Y79; Y79, Y79 cells) was 0.6 µM, the IC50 (Hs 38•T; Hs 38•T cells) was 0.7 µM and the IC50 (Hs 38•T; Hs 38•T, Ovary, TP53 Wild type) was 0.73 µM. For the same molecule, the IC50 (T-47D) was 9.9 µM, the IC50 (NCI-H1437) was 10 µM and the IC50 (MG-63) was 16 µM. It also gave an IC50 (EGI-1) of 9 µM, an IC50 (NCI-H2171) of 11 µM and an IC50 (KYSE-150) of 3 µM. For the same molecule, the IC50 (NCI-H1299) was 15 µM, the IC50 (HeLa S3) was 20 µM and the IC50 (NCI-H1944) was 7 µM. It also gave an IC50 (NCI-H2228) of 9.8 µM, an IC50 (SK-MES-1) of 6 µM and an IC50 (MDA-MB-157) of 20 µM. The IC50 (SK-ES-1) was 25 µM, the IC50 (SW1417) was 9.9 µM and the IC50 (NCI-H748) was 16 µM. For the same molecule, the IC50 (NCI-H441) was 10 µM, the IC50 (KMS-11) was 12 µM and the IC50 (SKM-1) was 19 µM. It also gave an IC50 (NCI-H2347) of 9 µM, an IC50 (HepG2; HepG2, HepG2, Liver, TP53 Wild type) of 0.18 µM and an IC50 (HepG2; HepG2, HepG2 cells) of 0.2 µM. The IC50 (COLO-704) was 20 µM.
